Results reported in ChEMBL document CHEMBL1151789, “Molecular modeling studies toward the structural optimization of new cyclopeptide-based HDAC inhibitors modeled on the natural product FR235222” (Bioorg Med Chem, 2008).

Test: Inhibition of HDLP

Q: For `CC[C@]1(C)NC(=O)[C@H](CCCCCC(=O)[C@@H](C)O)NC(=O)[C@@H]2CCCN2C(=O)[C@H](Cc2ccccc2)NC1=O`, which Ki is on record?
A: The Ki was 12.7 nM.

Q: For `C[C@H](O)C(=O)CCCCC[C@@H]1NC(=O)[C@H]2CCCN2C(=O)[C@H](Cc2ccccc2)NC(=O)C(C)(C)NC1=O`, which IC50 is on record?
A: The IC50 was 330 nM.

Q: And the Ki?
A: Its Ki is 194 nM.

Q: Which Ki does the source give for `C[C@H](O)C(=O)CCCCC[C@@H]1NC(=O)[C@@H]2CCCN2C(=O)[C@H](Cc2ccccc2)NC(=O)[C@H](Cc2ccc(Cl)cc2)NC1=O` here?
A: Its Ki is 23.4 nM.

Q: For `C[C@@H](O)C(=O)CCCCC[C@@H]1NC(=O)[C@@H]2CCCN2C(=O)[C@H](Cc2ccccc2)NC(=O)C(C)(C)NC1=O`, which Ki is on record?
A: Its Ki is 10.6 nM.

Q: For `C[C@@H](O)C(=O)CCCCC[C@@H]1NC(=O)[C@H]2CCCN2C(=O)[C@H](Cc2ccccc2)NC(=O)[C@H](Cc2ccccc2)NC1=O`, which IC50 is on record?
A: The IC50 was 280 nM.

Q: And the Ki?
A: Its Ki is 36.9 nM.

Q: What does the source list for `C[C@@H](O)C(=O)CCCCC[C@@H]1NC(=O)[C@H]2CCCN2C(=O)[C@H](Cc2ccccc2)NC(=O)[C@H](Cc2c[nH]c3ccccc23)NC1=O`?
A: IC50: 20 nM; Ki: 0.987 nM

Q: Which Ki does the source give for `C[C@@H](O)C(=O)CCCCC[C@@H]1NC(=O)[C@@H]2CCCN2C(=O)[C@H](Cc2ccccc2)NC(=O)[C@H](Cc2c[nH]c3ccccc23)NC1=O` here?
A: Its Ki is 7.77 nM.

Q: With `CC[C@@H]1NC(=O)[C@H](CCCCCC(=O)[C@H](C)O)NC(=O)[C@@H]2CCCN2C(=O)[C@H](Cc2ccccc2)NC1=O` as the molecule, how does the Ki read?
A: The Ki was 53.6 nM.

Q: For `C[C@H](O)C(=O)CCCCC[C@@H]1NC(=O)[C@@H]2CCCN2C(=O)[C@H](Cc2ccccc2)NC(=O)[C@H](Cc2cnc[nH]2)NC1=O`, which Ki is on record?
A: Its Ki is 20 nM.

Q: With `C[C@@H](O)C(=O)CCCCC[C@@H]1NC(=O)[C@H]2CCCN2C(=O)[C@H](Cc2ccccc2)NC(=O)C(C)(C)NC1=O` as the molecule, how does the IC50 read?
A: The IC50 was 30 nM.

Q: What about the Ki of the same molecule?
A: The Ki was 16.4 nM.

Q: For `CC[C@@H]1NC(=O)[C@H](CCCCCC(=O)[C@H](C)O)NC(=O)[C@H]2CCCN2C(=O)[C@H](Cc2ccccc2)NC1=O`, which IC50 is on record?
A: The IC50 was 1000 nM.

Q: And the Ki?
A: Its Ki is 110 nM.

Q: With `C[C@H](O)C(=O)CCCCC[C@@H]1NC(=O)[C@H]2CCCN2C(=O)[C@H](Cc2ccccc2)NC(=O)[C@H](Cc2ccc(Cl)cc2)NC1=O` as the molecule, how does the Ki read?
A: The Ki was 87.1 nM.

Q: Which IC50 does the source give for `C[C@H](O)C(=O)CCCCC[C@@H]1NC(=O)[C@H]2CCCN2C(=O)[C@H](Cc2ccccc2)NC(=O)C2(CCCCC2)NC1=O` here?
A: Its IC50 is 670 nM.

Q: What about the Ki of the same molecule?
A: Its Ki is 25.4 nM.

Q: With `C[C@H](O)C(=O)CCCCC[C@@H]1NC(=O)[C@@H]2CCCN2C(=O)[C@H](Cc2ccccc2)NC(=O)C(C)(C)NC1=O` as the molecule, how does the Ki read?
A: Its Ki is 52.8 nM.

Q: What does the source list for `C[C@H](O)C(=O)CCCCC[C@@H]1NC(=O)[C@H]2CCCN2C(=O)[C@H](Cc2ccccc2)NC(=O)[C@H](Cc2cnc[nH]2)NC1=O`?
A: IC50: 350000 nM; Ki: 34.2 nM

Q: With `CC[C@]1(C)NC(=O)[C@H](CCCCCC(=O)[C@@H](C)O)NC(=O)[C@H]2CCCN2C(=O)[C@H](Cc2ccccc2)NC1=O` as the molecule, how does the IC50 read?
A: Its IC50 is 50 nM.

Q: And the Ki?
A: Its Ki is 18.6 nM.

Q: Which Ki does the source give for `C[C@@H](O)C(=O)CCCCC[C@@H]1NC(=O)[C@@H]2CCCN2C(=O)[C@H](Cc2ccccc2)NC(=O)[C@H](Cc2ccccc2)NC1=O` here?
A: The Ki was 82.1 nM.

Q: For `CC[C@]1(C)NC(=O)[C@H](CCCCCC(=O)[C@@H](C)O)NC(=O)[C@@H]2CC(C)(C)CN2C(=O)[C@H](Cc2ccccc2)NC1=O`, which Ki is on record?
A: Its Ki is 45.8 nM.

Q: With `CC[C@]1(C)NC(=O)[C@H](CCCCCC(=O)[C@@H](C)O)NC(=O)[C@H]2CC(C)(C)CN2C(=O)[C@H](Cc2ccccc2)NC1=O` as the molecule, how does the IC50 read?
A: The IC50 was 90 nM.

Q: And the Ki?
A: The Ki was 60.4 nM.

Q: With `C[C@H](O)C(=O)CCCCC[C@@H]1NC(=O)[C@@H]2CCCN2C(=O)[C@H](Cc2ccccc2)NC(=O)C2(CCCCC2)NC1=O` as the molecule, how does the Ki read?
A: The Ki was 6.79 nM.
